Reference: patent US20250195521A1 (Revolution Medicines, Inc., priority 2020, published 2025)
Where two headings read alike, the source gives them in different places.

Experiments:
KRAS Q61H = KRAS Q61H (Homo sapiens (Human), UniProt P01116+P62937, Q61H); experiment: Ras-Raf disruption/FRET/MOA assay (BRAF RBD, Cyclophilin A); assay type: biochemical
Summary of the method: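 TR-FRET read after 1.5 h with 10 nM anti-His Eu-W1024 and 50 nM anti-GST APC, following 3 h at 25 °C of GMPPNP-loaded His6-Ras (12.5 nM), GST-BRAF RBD (50 nM) and Cyclophilin A (25 μM) with compound from 30 μM final, 10 points, 3-fold. IC50 reported; pH 7.3 HEPES, 100 mM NaCl.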

NRAS Q61K = NRAS Q61K (Homo sapiens (Human), UniProt P01111+P62937, Q61K); experiment: as above; assay type: biochemical
NRAS Q61K, sequence (P01111 whole entry Q61K): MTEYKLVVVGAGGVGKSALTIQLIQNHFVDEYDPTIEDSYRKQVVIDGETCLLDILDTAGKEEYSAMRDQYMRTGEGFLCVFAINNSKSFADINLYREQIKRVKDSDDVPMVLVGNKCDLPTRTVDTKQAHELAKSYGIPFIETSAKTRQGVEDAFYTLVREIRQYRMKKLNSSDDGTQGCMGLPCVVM
NRAS Q61K, sequence (P62937 whole entry): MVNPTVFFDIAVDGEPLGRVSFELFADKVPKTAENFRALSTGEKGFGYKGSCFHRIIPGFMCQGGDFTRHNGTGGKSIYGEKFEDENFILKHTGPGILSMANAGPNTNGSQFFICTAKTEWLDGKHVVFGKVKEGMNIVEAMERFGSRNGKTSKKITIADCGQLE
Summary of the method: (§1)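 Ras-GMPPNP (12.5 nM), BRAF RBD (50 nM) and 25 μM Cyclophilin A were incubated with compound for 3 h at 25° C, then detected 1.5 h with anti-His Eu and anti-GST APC; IC50 values follow from the reduced TR-FRET ratio.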

NRAS Q61R = NRAS Q61R (Homo sapiens (Human), UniProt P01111+P62937, Q61R); experiment: as above; assay type: biochemical
NRAS Q61R, sequence (P01111 whole entry Q61R): as the sequence (P01111 whole entry Q61K) above, with K61R counted along it
NRAS Q61R, sequence (P62937 whole entry): as the sequence (P62937 whole entry) above
Summary of the method: as §1

NRAS WT = NRAS WT (Homo sapiens (Human), UniProt P01111+P62937); experiment: as above; assay type: biochemical
NRAS WT, sequence (P01111 whole entry): as the sequence (P01111 whole entry Q61K) above, with K61Q counted along it
NRAS WT, sequence (P62937 whole entry): as the sequence (P62937 whole entry) above
Summary of the method: as §1

[1] = test system: K-Ras G12C (NCI-H358 cells); experiment: Potency assay: pERK in NCI-H358 cells; assay type: cell-based, human; settings: Homo sapiens, read-out: pERK EC50 (H358 KRAS G12C)
Summary of the method: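 Cells plated the day before were exposed for 4 h at 37° C, 5% CO2 to a 10-point, 3-fold DMSO dilution series (10 mM top stock), in duplicate. Phospho-ERK was read by AlphaLISA SureFire Ultra or by In-Cell Western with DRAQ5 DNA stain, and IC50 came from a 4-parameter sigmoidal fit.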

KRAS Q61H, sequence (P01116 other isoform, or with tags, fused parts or gaps Q61H): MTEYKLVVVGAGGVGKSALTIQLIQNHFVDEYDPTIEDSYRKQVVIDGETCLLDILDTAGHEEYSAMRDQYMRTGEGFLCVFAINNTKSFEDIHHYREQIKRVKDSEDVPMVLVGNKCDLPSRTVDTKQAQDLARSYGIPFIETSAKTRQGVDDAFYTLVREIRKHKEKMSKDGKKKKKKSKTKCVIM
KRAS Q61H, sequence (P62937 whole entry): as the sequence (P62937 whole entry) above

SMILES | IC50 (KRAS Q61H) [nM] | IC50 (NRAS Q61K) [nM] | IC50 (NRAS Q61R) [nM] | IC50 (NRAS WT) [nM] | EC50 ([1]; NCI-H358 cells, 4 hours) [nM] | EC50 ([1]; NCI-H358, 4 h) [nM]
CCn1c(-c2cccnc2[C@H](C)OC)c2c3cc(ccc31)-c1csc(n1)C[C@H](NC(=O)[C@H](C(C)C)N1C[C@@H](c3ccccc3)CC1=O)C(=O)N1CCC[C@H](N1)C(=O)OCC(C)(C)C2 (single isomer, unassigned) [Compound A544] | 100 to 1000 | 100 to 1000 | 1000 to 10000 | 1000 to 10000 | < 5000 | 
CCn1c(-c2cccnc2[C@H](C)OC)c2c3cc(ccc31)-c1cccc(c1)C[C@H](NC(=O)[C@H](C(C)C)N(C)C(C)=O)C(=O)N1CCC[C@H](N1)C(=O)OCC(C)(C)C2 [Compound A61] | 100 to 1000 | 1000 to 10000 | 1000 to 10000 | 1000 to 10000 | < 5000 | 
CCn1c(-c2cccnc2[C@H](C)OC)c2c3cc(ccc31)-c1cc(O)cc(c1)C[C@H](NC(=O)[C@@H]1[C@H]3C[C@H]3CN1C(C)=O)C(=O)N1CCC[C@H](N1)C(=O)OCC(C)(C)C2 [Compound A207] | 100 to 1000 | 1000 to 10000 | 1000 to 10000 | 1000 to 10000 | < 5000 | 
CCn1c(-c2cccnc2[C@H](C)OC)c2c3cc(ccc31)-c1csc(n1)C[C@H](NC(=O)[C@H](C(C)C)N(C)C(=O)[C@H]1CCN(S(C)(=O)=O)C1)C(=O)N1CCC[C@H](N1)C(=O)OCC(C)(C)C2 [Compound A237] |  | 1000 to 10000 | 1000 to 10000 | 1000 to 10000 |  | < 5000
CCn1c(-c2cccnc2[C@H](C)OC)c2c3cc(ccc31)-c1cc(O)cc(c1)C[C@H](NC(=O)[C@@H]1[C@@H](C)CCCN1C(C)=O)C(=O)N1CCC[C@H](N1)C(=O)OCC(C)(C)C2 [Compound A324] | 10 to 100 | 100 to 1000 | 1000 to 10000 | 100 to 1000 | < 5000 | 
CCn1c(-c2cccnc2[C@H](C)OC)c2c3cc(ccc31)-c1csc(n1)C[C@H](NC(=O)C1(F)CCC1)C(=O)N1CCC[C@H](N1)C(=O)OCC(C)(C)C2 [Compound A361] | 100 to 1000 | 100 to 1000 | 100 to 1000 | 100 to 1000 | < 5000 | 
CCn1c(-c2cccnc2[C@H](C)OC)c2c3cc(ccc31)-c1csc(n1)C[C@H](NC(=O)C1(F)CC1)C(=O)N1CCC[C@H](N1)C(=O)OCC(C)(C)C2 [Compound A362] | 100 to 1000 | 100 to 1000 | 1000 to 10000 | 100 to 1000 | < 5000 | 
CCn1c(-c2cccnc2[C@H](C)OC)c2c3cc(ccc31)-c1cc(O)cc(c1)C[C@H](NC(=O)[C@H](C(C)C)N(C)C(=O)C13CC(CO1)C3)C(=O)N1CCC[C@H](N1)C(=O)OCC(C)(C)C2 [Compound A406] | 10 to 100 | 100 to 1000 | 100 to 1000 | 10 to 100 | < 5000 | 
CCn1c(-c2cccnc2[C@H](C)OC)c2c3cc(ccc31)-c1csc(n1)C[C@H](NC(=O)[C@H](C(C)C)N(C)C(=O)N1CCO[C@@]3(CCN(C)C3)C1)C(=O)N1CCC[C@H](N1)C(=O)OCC(C)(C)C2 [Compound A436] | 100 to 1000 | 100 to 1000 | 100 to 1000 | 100 to 1000 | < 5000 | 
CCn1c(-c2cc(N3CCN(C)CC3)cnc2[C@H](C)OC)c2c3cc(ccc31)-c1csc(n1)C[C@H](NC(=O)[C@H](C(C)C)N(C)C(=O)[C@H]1CCCS1(=O)=O)C(=O)N1CCC[C@H](N1)C(=O)OCC(C)(C)C2 [Compound A439] | 100 to 1000 | 100 to 1000 | 100 to 1000 | 100 to 1000 | < 5000 | 
CCn1c(-c2cc(N3CCN(C)CC3)cnc2[C@H](C)OC)c2c3cc(ccc31)-c1csc(n1)C[C@H](NC(=O)[C@H](C(C)C)N(C)C(=O)[C@@H]1CCCS1(=O)=O)C(=O)N1CCC[C@H](N1)C(=O)OCC(C)(C)C2 [Compound A440] | 100 to 1000 | 100 to 1000 | 100 to 1000 | 100 to 1000 | < 5000 | 
CCn1c(-c2cccnc2[C@H](C)OC)c2c3cc(ccc31)-c1csc(n1)C[C@H](NC(=O)[C@H](C(C)C)N(C)C(=O)N1C[C@@H]3OCCN(C)[C@@H]3C1)C(=O)N1CCC[C@H](N1)C(=O)OCC(C)(C)C2 [Compound A444] | 10 to 100 |  | 100 to 1000 | 100 to 1000 | < 5000 | 
CCn1c(-c2cccnc2[C@H](C)OC)c2c3cc(ccc31)-c1csc(n1)C[C@H](NC(=O)[C@H](C(C)C)N(C)C(=O)N1C[C@H]3CN(C)CC[C@H]31)C(=O)N1CCC[C@H](N1)C(=O)OCC(C)(C)C2 [Compound A462] | 100 to 1000 | 100 to 1000 | 1000 to 10000 | 1000 to 10000 | < 5000 | 
CCn1c(-c2cccnc2[C@H](C)OC)c2c3cc(ccc31)-c1csc(n1)C[C@H](NC(=O)[C@H](C(C)C)N(C)C(=O)N1CC[C@H]1CN)C(=O)N1CCC[C@H](N1)C(=O)OCC(C)(C)C2 [Compound A463] | 100 to 1000 | 1000 to 10000 | 1000 to 10000 | 100 to 1000 | < 5000 | 
CCn1c(-c2cccnc2[C@H](C)OC)c2c3cc(ccc31)-c1csc(n1)C[C@H](NC(=O)[C@H](C(C)C)N(C)C(=O)N1CCC[C@@H]1CN(C)C)C(=O)N1CCC[C@H](N1)C(=O)OCC(C)(C)C2 [Compound A518] | 100 to 1000 | 1000 to 10000 | 1000 to 10000 | 100 to 1000 | < 5000 | 
CCn1c(-c2cccnc2[C@H](C)OC)c2c3cc(ccc31)-c1csc(n1)C[C@H](NC(=O)[C@H](C(C)C)N(C)C(=O)N1CCC13CCS(=O)(=O)CC3)C(=O)N1CCC[C@H](N1)C(=O)OCC(C)(C)C2 [Compound A530] | 10 to 100 |  | 100 to 1000 | 100 to 1000 | < 5000 | 
CCn1c(-c2cccnc2[C@H](C)OC)c2c3cc(ccc31)-c1csc(n1)C[C@H](NC(=O)[C@H](C(C)C)N(C)C(=O)N1CC([C@H](C)COC)C1)C(=O)N1CCC[C@H](N1)C(=O)OCC(C)(C)C2 [Compound A533] | 10 to 100 |  | 100 to 1000 | 10 to 100 | < 5000 | 
CCn1c(-c2cccnc2[C@H](C)OC)c2c3cc(ccc31)-c1csc(n1)C[C@H](NC(=O)[C@H](C(C)C)N(C)C(=O)N1CC([C@H](C)N(C)C)C1)C(=O)N1CCC[C@H](N1)C(=O)OCC(C)(C)C2 [Compound A538] | 10 to 100 |  | 100 to 1000 | 100 to 1000 | < 5000 | 
CCn1c(-c2cccnc2[C@H](C)OC)c2c3cc(ccc31)-c1csc(n1)C[C@H](NC(=O)[C@H](C(C)C)N(C)C(=O)N1CCCC13CN(C)C3)C(=O)N1CCC[C@H](N1)C(=O)OCC(C)(C)C2 [Compound A545] | 10 to 100 | 100 to 1000 | 100 to 1000 | 10 to 100 | < 5000 | 
CCn1c(-c2cccnc2[C@H](C)OC)c2c3cc(ccc31)-c1csc(n1)C[C@H](NC(=O)[C@H](C(C)C)N(CCc1ccncc1)C1CC1)C(=O)N1CCC[C@H](N1)C(=O)OCC(C)(C)C2 [Compound A556] | 100 to 1000 | 100 to 1000 | 100 to 1000 | 100 to 1000 | < 5000 | 
CCn1c(-c2cccnc2[C@H](C)OC)c2c3cc(ccc31)-c1csc(n1)C[C@H](NC(=O)[C@H](C(C)C)N(C)C(=O)N1CC[C@@H]1CN)C(=O)N1CCC[C@H](N1)C(=O)OCC(C)(C)C2 [Compound A558] | 10 to 100 | 100 to 1000 | 100 to 1000 | 10 to 100 | < 5000 | 
CCn1c(-c2cccnc2[C@H](C)OC)c2c3cc(ccc31)-c1csc(n1)C[C@H](NC(=O)[C@H](C(C)C)N(C)C(=O)N1CC[C@@H](F)[C@H](N)C1)C(=O)N1CCC[C@H](N1)C(=O)OCC(C)(C)C2 [Compound A559] | 10 to 100 | 100 to 1000 | 100 to 1000 | 100 to 1000 | < 5000 | 
CCn1c(-c2cccnc2[C@H](C)OC)c2c3cc(ccc31)-c1csc(n1)C[C@H](NC(=O)[C@H](C(C)C)N(C)C(=O)[C@@H]1OCC[C@@H]1c1ccccc1)C(=O)N1CCC[C@H](N1)C(=O)OCC(C)(C)C2 [Compound A585] | 100 to 1000 | 100 to 1000 | 100 to 1000 | 100 to 1000 | < 5000 | 
CCn1c(-c2cccnc2[C@H](C)OC)c2c3cc(ccc31)-c1cccc(c1)C[C@H](NC(=O)[C@H](C(C)C)N(C)C(=O)[C@@H]1OCC[C@@H]1c1ccccc1)C(=O)N1CCC[C@H](N1)C(=O)OCC(C)(C)C2 [Compound A586] | 100 to 1000 | 100 to 1000 | 100 to 1000 | 100 to 1000 | < 5000 | 
CCn1c(-c2cccnc2[C@H](C)OC)c2c3cc(ccc31)-c1csc(n1)C[C@H](NC(=O)[C@H](C(C)C)N(C)C(=O)N1CC(O)(CN(C)C)C1)C(=O)N1CCC[C@H](N1)C(=O)OCC(C)(C)C2 [Compound A597] | 100 to 1000 | 100 to 1000 | 100 to 1000 | 100 to 1000 | < 5000 | 
CCn1c(-c2cccnc2[C@H](C)OC)c2c3cc(ccc31)-c1csc(n1)C[C@H](NC(=O)[C@H](C(C)C)N(C)C(=O)N1CCC[C@H]1c1ccccc1)C(=O)N1CCC[C@H](N1)C(=O)OCC(C)(C)C2 [Compound A599] | 100 to 1000 | 1000 to 10000 | 1000 to 10000 | 1000 to 10000 | < 5000 | 
